Values quoted from earlier work, collected in US20040121961A1, “Uroguanylin and cyclooxygenase-2 inhibitor combinations for inhibition of intestinal cancer” (priority 2004, published 2004).
No end group written: not given here.

Tests used:
[1] = system: Min-mouse, an animal model for human Familial Adenomatous Polyposis (FAP); settings: oral administration, reported in PCT/US00/21998
[2] = system: T-84, human colon carcinoma cells; settings: treatment with uroguanylin; reported in PCT/US00/21998

## uroguanylin: enteric peptide hormone, GC-C receptor agonist; human uroguanylin chemically synthesized by solid phase peptide synthesis (NDDCELCVNVACTGCL; ends and bridges not checked; cysteine pairing not given here; UniProt Q16661 97-112, looked up)
[1]
  polyp formation in the intestinal tract: inhibition in polyp formation
[2]
  apoptosis in T-84 cells: induction of apoptosis
